Assay results taken from US10538555B2, “Macrocyclic inhibitors of the PD-1/PD-L1 and CD80(B7-1)/PD-L1 protein/protein interactions” (BRISTOL-MYERS SQUIBB COMPANY, priority 2014, dated 2020).
*1 amine or outer side, *2 acyl side, *3 side chain or, on linkers, in order; H or OH if unused. Where a SMILES comes first, the peptide text is derived from it. Bridges are numbered along the chain shown (N, C = ends). [ ]: non-standard residue; d: D form. ξ: configuration not given here. Trp(1-CH2COOH) = N[C@@H](Cc1cn(CC(=O)O)c2ccccc12)C(=O)O; Phe(3,4,5-F3) = N[C@@H](Cc1cc(F)c(F)c(F)c1)C(=O)O; Trp(7-aza) = N[C@@H](Cc1c[nH]c2ncccc12)C(=O)O; Phe(3-Cl) = N[C@@H](Cc1cccc(Cl)c1)C(=O)O; Phe(4-F) = N[C@@H](Cc1ccc(F)cc1)C(=O)O; Phe(4-Me) = Cc1ccc(C[C@H](N)C(=O)O)cc1; d(cisHyp) = O=C(O)[C@H]1C[C@@H](O)CN1; Hyp = O=C(O)[C@@H]1C[C@@H](O)CN1; NMeF = CN[C@@H](Cc1ccccc1)C(=O)O; X1 = O=C([C@H]1COCCN1[*:1])[*:2]; dPip(4-aza) = O=C(O)[C@H]1CNCCN1; dHyp = O=C(O)[C@H]1C[C@H](O)CN1; Thr(3ξ) = CC(O)[C@H](N)C(=O)O; NMeNle = CCCC[C@H](NC)C(=O)O; Pip = O=C(O)[C@@H]1CCCCN1; dPip = O=C(O)[C@H]1CCCCN1; NMeA = CN[C@@H](C)C(=O)O; Orn = NCCC[C@H](N)C(=O)O; Dab = NCC[C@H](N)C(=O)O; Dap = NC[C@H](N)C(=O)O; ξC = NC(CS)C(=O)O; Sar = CNCC(=O)O

target: T1, Human PD-L1/PD-1 (Homo sapiens, UniProt Q9NZQ7); experiment: HTRF Human PD-L1/PD-1 binding assay (PD-1-Ig/PD-L1-His); conditions: PD-L1-His 10 nM, PD-1-Ig 20 nM; class symbol; read-out: HTRF Human PD-L1/PD-1 Binding Assay IC50 Range
T1 construct: TVMV protease cleavage site (C); made in house; host or cells: HEK293T cells
T1 sequence (Q9NZQ7 with tags, fused parts or gaps): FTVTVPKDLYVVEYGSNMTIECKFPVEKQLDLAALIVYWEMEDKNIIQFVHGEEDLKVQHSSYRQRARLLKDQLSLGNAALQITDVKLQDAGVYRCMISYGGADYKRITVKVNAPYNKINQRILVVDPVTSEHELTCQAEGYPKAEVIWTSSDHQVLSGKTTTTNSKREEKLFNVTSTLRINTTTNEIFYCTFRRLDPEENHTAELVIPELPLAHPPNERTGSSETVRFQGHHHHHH
How it was run: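 Step 1: compound with PD-L1-His (10 nM final), 15 min. Step 2: PD-1-Ig (20 nM final), 15 min. Step 3: Eu-cryptate anti-Ig (1 nM) plus APC anti-His (20 nM), 30 min equilibration. Signal taken as 665 nm/620 nm ratio.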

Row | SMILES | IC50 [nM]
1 | CCCC[C@H]1C(=O)N(C)CC(=O)N[C@@H](CC(N)=O)C(=O)N[C@@H](C(C)C)C(=O)N(C)[C@@H](Cc2ccccc2)C(=O)N[C@@H](Cc2ccc(O)cc2)C(=O)N(C)CC(=O)N[C@@H](Cc2c[nH]c3ncccc23)C(=O)N[C@@H](Cc2ccc(O)cc2)C(=O)N[C@@H](CC(C)C)C(=O)N[C@H](C(=O)NCC(N)=O)CSCC(=O)N[C@@H](Cc2ccccc2)C(=O)N(C)[C@@H](Cc2ccccc2)C(=O)N1C [Example 3241] ({CH2CO}-F[NMeF][NMeNle][Sar]NV[NMeF]Y[Sar][Trp(7-aza)]YLCG-NH2; thioether N-13) | 10 to 99.9
2 | CCCC[C@H]1C(=O)N2C[C@@H](O)C[C@@H]2C(=O)N[C@@H](CC(=O)O)C(=O)N[C@@H](C(C)C)C(=O)N(C)[C@@H](Cc2ccccc2)C(=O)N[C@@H](CCC(=O)O)C(=O)N2CCCC[C@@H]2C(=O)N[C@@H](Cc2cn(CC(=O)O)c3ccccc23)C(=O)N[C@@H](Cc2ccc(O)cc2)C(=O)N[C@@H](CC(C)C)C(=O)N[C@H](C(=O)NCC(N)=O)CSCC(=O)N[C@@H](Cc2cc(F)c(F)c(F)c2)C(=O)N(C)[C@@H](Cc2ccccc2)C(=O)N1C [Example 10586] ({CH2CO}-[Phe(3,4,5-F3)][NMeF][NMeNle][dHyp]DV[NMeF]E[dPip][Trp(1-CH2COOH)]YLCG-NH2; thioether N-13) | 1 to 9.9
3 | CCCC[C@H]1C(=O)N2CCOC[C@@H]2C(=O)N[C@@H](CC(=O)O)C(=O)N[C@@H](C(C)C)C(=O)N(C)[C@@H](Cc2ccccc2)C(=O)N[C@@H](Cc2ccc(O)cc2)C(=O)N2CCOC[C@@H]2C(=O)N[C@@H](Cc2c[nH]c3ccccc23)C(=O)N[C@@H](Cc2ccc(O)cc2)C(=O)N[C@@H](CCCN)C(=O)N[C@H](C(=O)NCC(N)=O)CSCC(=O)N[C@@H](Cc2cc(F)c(F)c(F)c2)C(=O)N(C)[C@@H](Cc2ccccc2)C(=O)N1C [Example 9284] ({CH2CO}-[Phe(3,4,5-F3)][NMeF][NMeNle][X1]DV[NMeF]Y[X1]WY[Orn]CG-NH2; thioether N-13) | 1 to 9.9
4 | CCCC[C@H]1C(=O)N(C)[C@@H](CCCC)C(=O)N[C@@H](CC(C)C)C(=O)N[C@H](C(=O)NCC(N)=O)CSCC(=O)N[C@@H](Cc2ccc(OC)cc2)C(=O)N(C)[C@@H](C)C(=O)N[C@@H](CC(N)=O)C(=O)N2CCC[C@H]2C(=O)N[C@@H](Cc2c[nH]cn2)C(=O)N[C@@H](CCC(N)=O)C(=O)N2C[C@H](O)C[C@H]2C(=O)N[C@@H](Cc2c[nH]c3ccccc23)C(=O)N[C@@H](CO)C(=O)N[C@@H](Cc2cn(CC(=O)O)c3ccccc23)C(=O)N1C [Example 7141] ({CH2CO}-Y(Me)[NMeA]NPHQ[Hyp]WS[Trp(1-CH2COOH)][NMeNle][NMeNle]LCG-NH2; thioether N-14) | 1 to 9.9
5 | CCCC[C@H]1C(=O)N(C)[C@@H](CCCC)C(=O)N[C@@H](CC(C)C)C(=O)N[C@H](C(=O)NCC(N)=O)CSCC(=O)N[C@@H](Cc2ccc(O)cc2)C(=O)N2CCCC[C@H]2C(=O)N[C@@H](CC(N)=O)C(=O)N2CCC[C@H]2C(=O)N[C@@H](CN)C(=O)N[C@@H](CC(C)C)C(=O)N2C[C@H](O)C[C@H]2C(=O)N[C@@H](Cc2c[nH]c3ccccc23)C(=O)N[C@@H](CCN)C(=O)N[C@@H](Cc2cn(CC(=O)O)c3ccccc23)C(=O)N1C [Example 1297] ({CH2CO}-Y[Pip]NP[Dap]L[Hyp]W[Dab][Trp(1-CH2COOH)][NMeNle][NMeNle]LCG-NH2; thioether N-14) | 1 to 9.9
6 | CCCC[C@H]1C(=O)N(C)[C@@H](CCCC)C(=O)N[C@@H](CCCNC(=N)N)C(=O)NC(C(=O)NCC(N)=O)CSCC(=O)N[C@@H](Cc2ccc(O)cc2)C(=O)N(C)[C@@H](C)C(=O)N[C@@H](Cc2cnc[nH]2)C(=O)N2CCC[C@H]2C(=O)N[C@@H](CC(N)=O)C(=O)N[C@@H](CC(C)C)C(=O)N2CCC[C@H]2C(=O)N[C@@H](Cc2c[nH]c3ccccc23)C(=O)N[C@@H](CO)C(=O)N[C@@H](Cc2c[nH]c3ccccc23)C(=O)N1C (stereo partly drawn) [Example 9144] ({CH2CO}-Y[NMeA]HPNLPWSW[NMeNle][NMeNle]R[ξC]G-NH2; thioether N-14) | 1 to 9.9
7 | CCCC[C@H]1C(=O)N(C)[C@@H](CCCC)C(=O)N[C@@H](CN)C(=O)N[C@H](C(=O)NCC(N)=O)CSCC(=O)N[C@@H](Cc2ccc(O)cc2)C(=O)N(C)[C@@H](C)C(=O)N[C@@H](CC(N)=O)C(=O)N2CCC[C@H]2C(=O)N[C@@H](CN)C(=O)N[C@@H](CCC(=O)O)C(=O)N2C[C@H](O)C[C@H]2C(=O)N[C@@H](Cc2c[nH]c3ccccc23)C(=O)N[C@@H](CCN)C(=O)N[C@@H](Cc2cn(CC(=O)O)c3ccccc23)C(=O)N1C [Example 6301] ({CH2CO}-Y[NMeA]NP[Dap]E[Hyp]W[Dab][Trp(1-CH2COOH)][NMeNle][NMeNle][Dap]CG-NH2; thioether N-14) | 1 to 9.9
8 | CCCC[C@H]1C(=O)N(C)[C@@H](CCCC)C(=O)N[C@@H](CCC(=O)O)C(=O)N[C@H](C(=O)NCC(N)=O)CSCC(=O)N[C@@H](Cc2ccc(O)cc2)C(=O)N(C)[C@@H](C)C(=O)N[C@@H](CC(N)=O)C(=O)N2CCC[C@H]2C(=O)N[C@@H](CO)C(=O)N[C@@H](CC(C)C)C(=O)N2C[C@H](O)C[C@H]2C(=O)N[C@@H](Cc2c[nH]c3ccccc23)C(=O)N[C@@H](CCC(=O)O)C(=O)N[C@@H](Cc2c[nH]c3ccccc23)C(=O)N1C [Example 5216] ({CH2CO}-Y[NMeA]NPSL[Hyp]WEW[NMeNle][NMeNle]ECG-NH2; thioether N-14) | 1 to 9.9
9 | CCCC[C@H]1C(=O)N2CCC[C@@H]2C(=O)N[C@@H](CC(=O)O)C(=O)N[C@@H](C(C)C)C(=O)N(C)[C@@H](Cc2ccccc2)C(=O)N[C@@H](Cc2ccc(O)cc2)C(=O)N2C[C@@H](O)C[C@@H]2C(=O)N[C@@H](Cc2c[nH]c3ccccc23)C(=O)N[C@@H](Cc2ccc(O)cc2)C(=O)N[C@@H](CC(C)C)C(=O)N[C@H](C(=O)NCC(N)=O)CSCC(=O)N[C@@H](Cc2cc(F)c(F)c(F)c2)C(=O)N(C)[C@@H](Cc2ccccc2)C(=O)N1C [Example 9287] ({CH2CO}-[Phe(3,4,5-F3)][NMeF][NMeNle][dP]DV[NMeF]Y[dHyp]WYLCG-NH2; thioether N-13) | 1 to 9.9
10 | CCCC[C@H]1C(=O)N(C)[C@@H](CCCC)C(=O)N[C@@H](CC(C)C)C(=O)N[C@H](C(N)=O)CSCC(=O)N[C@@H](Cc2ccc(O)cc2)C(=O)N(C)[C@@H](C)C(=O)N[C@@H](CC(N)=O)C(=O)N2CCC[C@H]2C(=O)N[C@@H](CN)C(=O)N[C@@H](CC(C)C)C(=O)N2C[C@H](O)C[C@H]2C(=O)N[C@@H](Cc2c[nH]c3ccccc23)C(=O)N[C@@H](CCN)C(=O)N[C@@H](Cc2cn(CC(=O)O)c3ccccc23)C(=O)N1C [Example 6310] ({CH2CO}-Y[NMeA]NP[Dap]L[Hyp]W[Dab][Trp(1-CH2COOH)][NMeNle][NMeNle]LC-NH2; thioether N-14) | 10 to 99.9
11 | CCCC[C@H]1C(=O)N(C)[C@@H](CCCC)C(=O)N[C@@H](C(C)O)C(=O)N[C@H](C(=O)NCC(N)=O)CSCC(=O)N[C@@H](Cc2ccc(OC)cc2)C(=O)N(C)[C@@H](C)C(=O)N[C@@H](CC(N)=O)C(=O)N2CCC[C@H]2C(=O)N[C@@H](Cc2c[nH]cn2)C(=O)N[C@@H](CCC(N)=O)C(=O)N2C[C@H](O)C[C@H]2C(=O)N[C@@H](Cc2c[nH]c3ccccc23)C(=O)N[C@@H](CO)C(=O)N[C@@H](Cc2c[nH]c3ccccc23)C(=O)N1C (stereo partly drawn) [Example 7139] ({CH2CO}-Y(Me)[NMeA]NPHQ[Hyp]WSW[NMeNle][NMeNle][Thr(3ξ)]CG-NH2; thioether N-14) | 1 to 9.9
12 | CCCC[C@H]1C(=O)N2C[C@H](O)C[C@@H]2C(=O)N[C@@H](CC(=O)O)C(=O)N[C@@H](C(C)C)C(=O)N(C)[C@@H](Cc2ccccc2)C(=O)N[C@@H](CCC(=O)O)C(=O)N2CCNC[C@@H]2C(=O)N[C@@H](Cc2c[nH]c3ccccc23)C(=O)N[C@@H](Cc2ccc(O)cc2)C(=O)N[C@@H](CCCN)C(=O)N[C@H](C(=O)NCC(N)=O)CSCC(=O)N[C@@H](Cc2cccc(Cl)c2)C(=O)N(C)[C@@H](Cc2ccccc2)C(=O)N1C [Example 3647] ({CH2CO}-[Phe(3-Cl)][NMeF][NMeNle][d(cisHyp)]DV[NMeF]E[dPip(4-aza)]WY[Orn]CG-NH2; thioether N-13) | 10 to 99.9
13 | CCCC[C@H]1C(=O)N2CCC[C@@H]2C(=O)N[C@@H](CC(=O)O)C(=O)N[C@@H](C(C)C)C(=O)N(C)[C@@H](Cc2ccccc2)C(=O)N[C@@H](CCC(=O)O)C(=O)N2CCC[C@@H]2C(=O)N[C@@H](Cc2c[nH]c3ccccc23)C(=O)N[C@@H](Cc2ccc(O)cc2)C(=O)N[C@@H](CC(C)C)C(=O)N[C@H](C(=O)NCC(N)=O)CSCC(=O)N[C@@H](Cc2ccc(F)cc2)C(=O)N(C)[C@@H](Cc2ccccc2)C(=O)N1C [Example 10107] ({CH2CO}-[Phe(4-F)][NMeF][NMeNle][dP]DV[NMeF]E[dP]WYLCG-NH2; thioether N-13) | 1 to 9.9
14 | CCCC[C@H]1C(=O)N(C)[C@@H](CCCC)C(=O)N[C@@H](CCCNC(=N)N)C(=O)N[C@H](C(=O)NCC(N)=O)CSCC(=O)N[C@@H](Cc2ccc(C)cc2)C(=O)N(C)[C@@H](C)C(=O)N[C@@H](CC(N)=O)C(=O)N2CCC[C@H]2C(=O)N[C@@H](CN)C(=O)N[C@@H](CC(C)C)C(=O)N2C[C@H](O)C[C@H]2C(=O)N[C@@H](Cc2c[nH]c3ccccc23)C(=O)N[C@@H](CO)C(=O)N[C@@H](Cc2c[nH]c3ccccc23)C(=O)N1C [Example 7070] ({CH2CO}-[Phe(4-Me)][NMeA]NP[Dap]L[Hyp]WSW[NMeNle][NMeNle]RCG-NH2; thioether N-14) | 1 to 9.9

same assay, conditions: PD-L1-His 10 nM, PD-1-Ig 20 nM; read-out: HTRF Human PD-L1/PD-1 Binding Assay IC50

Row | SMILES | IC50 [nM]
15 | CC(C)C[C@@H]1NC(=O)[C@H](Cc2c[nH]cn2)NC(=O)[C@@H]2CCCN2C(=O)[C@H](CC(N)=O)NC(=O)[C@H](C)N(C)C(=O)[C@H](Cc2ccc(O)cc2)NC(=O)CSC[C@@H](C(=O)NCC(N)=O)NC(=O)[C@H](C)NC(=O)[C@H](CC(=O)O)N(C)C(=O)[C@H](CCCCN)N(C)C(=O)[C@H](Cc2c[nH]c3ccccc23)NC(=O)[C@H](CO)NC(=O)[C@H](Cc2c[nH]c3ccccc23)NC(=O)[C@@H]2C[C@@H](O)CN2C1=O [Example 1534] | 1000
